Test results reported in patent US10329309B2, “3-(3H-imidazo[4,5-B]pyridin-2-yl)-1H-pyrazolo[4,3-B]pyridines and therapeutic uses thereof” (Samumed, LLC, priority 2015, dated 2019).

Legend:
Assay type in all cases: cell-based
[1] = system: SW480 colon cancer cells; experiment: Cell viability assay (CellTiter-Blue), four days; settings: Homo sapiens, 96 h; for EC50: CellTiter-Blue cell viability; for inhibition at 10 µM: read-out: percent inhibition at 10 μM (given for EC50 of >10 μM)
Outline: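 Approximately 2×10^3 SW480 cells per well are seeded with compound (8 points, threefold steps, top 10 μM) and incubated four days at 37 °C. CellTiter-Blue is then added for about 3 h and fluorescence read. Non-linear regression gives EC50; for values beyond 10 μM, percent inhibition at that concentration is listed.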

[2] = system: primary human fibroblasts derived from IPF patients (LL29 cells), α-smooth muscle actin (αSMA); experiment: Inhibition of the fibrotic process: TGF-β1-treated primary human fibroblasts from IPF patients, αSMA staining; settings: Fibroblast, 96 h, 4 days; for EC50: LL29 fibroblasts from IPF patients, TGF-β1 20 ng/mL, inhibition of fibrotic process; for inhibition at 10 µM: LL29 fibroblasts, TGF-β1 treated, read-out: percent inhibition at 10 μM (given for EC50 of >10 μM)
Outline: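 Compound dilutions from 10 μM down to […] are dispensed, LL29 cells added in F12 with 1% FBS, and TGF-β1 (20 ng/mL) follows after 1 h. After 4 days, live-cell αSMA positivity is measured by immunofluorescence and normalized to TGF-β1-treated wells to derive EC50.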

[3] = system: IL-6 (THP-1 cells); experiment: Inhibition of IL-6 in LPS-stimulated THP-1 monocytes (HTRF); settings: Homo sapiens; for EC50: LPS 500 ng/mL, IL-6 by HTRF; for inhibition at 10 µM: LPS stimulated, IL-6, at 10 μM, read-out: percent inhibition at 10 μM (given for EC50 of >10 μM)
Outline: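 THP-1 cells, serum-starved in 1% FBS for 24 h, were pre-incubated 2 h with compound (10-point, 1:3 from 10 μM, 0.1% DMSO), then stimulated with 500 ng/mL LPS for 22 h at 37 °C. IL-6 was quantified by HTRF 665/620 ratio. EC50 was fitted from DMSO-normalized data; above 10 μM, % inhibition at 10 μM is given.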

Row | Compound | EC50 [1] | EC50 [3] | inhibition at 10 µM [1] | EC50 [2] | inhibition at 10 µM [2] | inhibition at 10 µM [3]
1 | c1cc(-c2ccnc3[nH]c(-c4n[nH]c5ccc(-c6cnccn6)nc45)nc23)ccn1 [Compound 584, 5-(Pyrazin-2-yl)-3-(7-(pyridin-4-yl)-3H-imidazo[4,5-b]pyridin-2-yl)-1H-pyrazolo[4,3-b]pyridine] | > 10 µM | > 10 µM | 10.8% | > 10 µM | 4.5% | 22%
2 | O=C(CC1CCNCC1)Nc1cncc(-c2ccc3[nH]nc(-c4nc5c(-c6ccccn6)ccnc5[nH]4)c3n2)c1 [Compound 593, 2-(Piperidin-4-yl)-N-(5-(3-(7-(pyridin-2-yl)-3H-imidazo[4,5-b]pyridin-2-yl)-1H-pyrazolo[4,3-b]pyridin-5-yl)pyridin-3-yl)acetamide] | > 10 µM | > 10 µM | 16.7% | 0.913 µM |  | 41.8%
3 | c1cc(N2CCCCC2)c2nc(-c3n[nH]c4ccc(-c5cncc(OCCN6CCCC6)c5)nc34)[nH]c2n1 [Compound 610, 3-(7-(Piperidin-1-yl)-3H-imidazo[4,5-b]pyridin-2-yl)-5-(5-(2-(pyrrolidin-1-yl)ethoxy)pyridin-3-yl)-1H-pyrazolo[4,3-b]pyridine] | > 10 µM | > 10 µM | 3.5% | 2.27 µM |  | 25.3%
4 | COc1cncc(-c2ccc3[nH]nc(-c4nc5c(N6CCCCC6)ccnc5[nH]4)c3n2)c1 [Compound 612, 5-(5-Methoxypyridin-3-yl)-3-(7-(piperidin-1-yl)-3H-imidazo[4,5-b]pyridin-2-yl)-1H-pyrazolo[4,3-b]pyridine] | > 10 µM | > 10 µM | 6.1% | > 10 µM | 30.3% | 44.6%
5 | Cc1cn(-c2ccnc3[nH]c(-c4n[nH]c5ccc(C6=CCNCC6)nc45)nc23)cn1 [Compound 618, 3-(7-(4-Methyl-1H-imidazol-1-yl)-3H-imidazo[4,5-b]pyridin-2-yl)-5-(1,2,3,6-tetrahydropyridin-4-yl)-1H-pyrazolo[4,3-b]pyridine] | > 10 µM | 1.55 µM | 2.8% | > 10 µM | 0% | 
6 | CN1CCN(c2ccnc3[nH]c(-c4n[nH]c5ccc(-c6cncc(OC7CCCCC7)c6)nc45)nc23)CC1 [Compound 639, 5-(5-(Cyclohexyloxy)pyridin-3-yl)-3-(7-(4-methylpiperazin-1-yl)-3H-imidazo[4,5-b]pyridin-2-yl)-1H-pyrazolo[4,3-b]pyridine] | 5.85 µM | > 10 µM |  | 3.27 µM |  | 33.5%
7 | CN1CCN(c2ccnc3[nH]c(-c4n[nH]c5ccc(-c6cnccn6)nc45)nc23)CC1 [Compound 648, 3-(7-(4-Methylpiperazin-1-yl)-3H-imidazo[4,5-b]pyridin-2-yl)-5-(pyrazin-2-yl)-1H-pyrazolo[4,3-b]pyridine] | 3.91 µM | > 10 µM |  | > 10 µM | 0% | 9.9%
8 | Oc1cncc(-c2ccc3[nH]nc(-c4nc5cccnc5[nH]4)c3n2)c1 [Compound 661, 5-(3-(3H-Imidazo[4,5-b]pyridin-2-yl)-1H-pyrazolo[4,3-b]pyridin-5-yl) pyridin-3-ol] | > 10 µM | > 10 µM | 13% | > 10 µM | 6.2% | 27.9%
9 | Cc1ncc(-c2ccc3[nH]nc(-c4nc5c(-c6ccoc6)ccnc5[nH]4)c3n2)n1C [Compound 685, 5-(1,2-Dimethyl-1H-imidazol-5-yl)-3-(7-(furan-3-yl)-3H-imidazo[4,5-b]pyridin-2-yl)-1H-pyrazolo[4,3-b]pyridine] | 4.19 µM | > 10 µM |  | > 10 µM | 0% | 24.3%
10 | c1cc(-c2ccoc2)c2nc(-c3n[nH]c4ccc(-c5cncc(OCCN6CCCC6)c5)nc34)[nH]c2n1 [Compound 690, 3-(7-(Furan-3-yl)-3H-imidazo[4,5-b]pyridin-2-yl)-5-(5-(2-(pyrrolidin-1-yl)ethoxy)pyridin-3-yl)-1H-pyrazolo[4,3-b]pyridine] | > 10 µM | > 10 µM | 26.6% | 4.75 µM |  | 42.9%
11 | COc1cncc(-c2ccc3[nH]nc(-c4nc5c(-c6ccoc6)ccnc5[nH]4)c3n2)c1 [Compound 692, 3-(7-(Furan-3-yl)-3H-imidazo[4,5-b]pyridin-2-yl)-5-(5-methoxypyridin-3-yl)-1H-pyrazolo[4,3-b]pyridine] | > 10 µM | > 10 µM | 17.6% | 1.32 µM |  | 39%
12 | Cn1cc(-c2ccc3[nH]nc(-c4nc5c(-c6cccs6)ccnc5[nH]4)c3n2)cn1 [Compound 700, 5-(1-Methyl-1H-pyrazol-4-yl)-3-(7-(thiophen-2-yl)-3H-imidazo[4,5-b]pyridin-2-yl)-1H-pyrazolo[4,3-b]pyridine] | > 10 µM | > 10 µM | 0.1% | 0.438 µM |  | 0%
13 | CN(C)CCOc1cncc(-c2ccc3[nH]nc(-c4nc5c(-c6cccs6)ccnc5[nH]4)c3n2)c1 [Compound 707, N,N-Dimethyl-2-((5-(3-(7-(thiophen-2-yl)-3H-imidazo[4,5-b]pyridin-2-yl)-1H-pyrazolo[4,3-b]pyridin-5-yl)pyridin-3-yl)oxy)ethan-1-amine] | 3.87 µM | > 10 µM |  | 2.43 µM |  | 35.1%
14 | Cn1cc(-c2ccc3[nH]nc(-c4nc5c(-c6cc(F)cc(CNS(C)(=O)=O)c6)ccnc5[nH]4)c3n2)cn1 [Compound 764, N-(3-Fluoro-5-(2-(5-(1-methyl-1H-pyrazol-4-yl)-1H-pyrazolo[4,3-b]pyridin-3-yl)-3H-imidazo[4,5-b]pyridin-7-yl)benzyl)methanesulfonamide] | > 10 µM | > 10 µM | 0% | > 10 µM | 26.8% | 24.2%

Continued, in another order:

Row | EC50 [1] | EC50 [3] | Compound | inhibition at 10 µM [1] | EC50 [2] | inhibition at 10 µM [2] | inhibition at 10 µM [3]
15 | > 10 µM | 0.92 µM | Cc1cn(-c2ccnc3[nH]c(-c4n[nH]c5ccc(-c6cncc(N7CC(N)C7)n6)nc45)nc23)cn1 [Compound 622, 1-(6-(3-(7-(4-Methyl-1H-imidazol-1-yl)-3H-imidazo[4,5-b]pyridin-2-yl)-1H-pyrazolo[4,3-b]pyridin-5-yl)pyrazin-2-yl)azetidin-3-amine] | 4.7% | 4.82 µM |  | 
16 | > 10 µM | 0.404 µM | Cc1cn(-c2ccnc3[nH]c(-c4n[nH]c5ccc(-c6cncc(OCCN(C)C)c6)nc45)nc23)cn1 [Compound 627, N,N-Dimethyl-2-((5-(3-(7-(4-methyl-1H-imidazol-1-yl)-3H-imidazo[4,5-b]pyridin-2-yl)-1H-pyrazolo[4,3-b]pyridin-5-yl)pyridin-3-yl)oxy)ethan-1-amine] | 14.8% | 4.8 µM |  | 
17 | > 10 µM | > 10 µM | c1cnc2[nH]c(-c3n[nH]c4ccc(-c5cn[nH]c5)nc34)nc2c1 [Compound 651, 3-(3H-Imidazo[4,5-b]pyridin-2-yl)-5-(1H-pyrazol-4-yl)-1H-pyrazolo[4,3-b]pyridine] | 3.1% | > 10 µM | 28.6% | 0%
18 | > 10 µM | 7.6 µM | c1cnc2[nH]c(-c3n[nH]c4ccc(-c5cncc(OC6CCNCC6)c5)nc34)nc2c1 [Compound 656, 3-(3H-Imidazo[4,5-b]pyridin-2-yl)-5-(5-(piperidin-4-yloxy)pyridin-3-yl)-1H-pyrazolo[4,3-b]pyridine] | 11.4% | 6.27 µM |  | 
19 | > 10 µM | > 10 µM | O=C(CC1CCNCC1)Nc1cncc(-c2ccc3[nH]nc(-c4nc5c(-c6ccsc6)ccnc5[nH]4)c3n2)c1 [Compound 673, 2-(Piperidin-4-yl)-N-(5-(3-(7-(thiophen-3-yl)-3H-imidazo[4,5-b]pyridin-2-yl)-1H-pyrazolo[4,3-b]pyridin-5-yl)pyridin-3-yl)acetamide] | 0.6% | 4.75 µM |  | 35.9%
20 | > 10 µM | 1.79 µM | Cc1ccc(-c2ccnc3[nH]c(-c4n[nH]c5ccc(-c6cncc(OC7CCCCC7)c6)nc45)nc23)s1 [Compound 735, 5-(5-(Cyclohexyloxy)pyridin-3-yl)-3-(7-(5-methylthiophen-2-yl)-3H-imidazo[4,5-b]pyridin-2-yl)-1H-pyrazolo[4,3-b]pyridine] | 10.9% | 0.139 µM |  | 
